From patent publication US8114867B2, “Oxazolidinone antibiotic derivatives” (Actelion Pharmaceuticals Ltd, priority 2007, dated 2012)
Converted amounts (≈) assume the structure as drawn.

System: S. aureus 29213
Assay: MIC by broth microdilution (NCCLS), S. aureus 29213
Format: cell-based
Conditions: Staphylococcus aureus, strain S. aureus 29213, cation-adjusted Mueller-Hinton Broth, pH 7.2-7.3
Experimental: These assays have been performed following the description given in “Methods for dilution Antimicrobial Susceptibility Tests for Bacteria that Grow Aerobically, 4th ed.; Approved standard: NCCLS Document M7-A4; National Committee for Clinical Laboratory Standards: Villanova, Pa., USA, 1997”. Minimal inhibitory concentrations (MICs; mg/l) were determined in cation-adjusted Mueller-Hinton Broth (BBL) by a microdilution method following NCCLS guidelines (National Committee for Clinical Laboratory Standards. Methods for Dilution Antimicrobial Susceptibility). The pH of the test medium was 7.2-7.3.

Row | SMILES | MIC [µg/mL]
1 | O=C1CSc2ccc(N3CC(CCCNCc4cccc5ccccc45)OC3=O)cc2N1 (racemic) [Example 155, rac-6-(5-{3-[(naphthalen-1-ylmethyl)-amino]-propyl}-2-oxo-oxazolidin-3-yl)-4H-benzo[1,4]thiazin-3-one] | ≤ 0.063
2 | COC(=O)c1ccc(CNCCCC2CN(c3ccc4c(c3)NC(=O)CS4)C(=O)O2)c2nc(OC)ccc12 (racemic) [Example 156, rac-2-methoxy-8-({3-[2-oxo-3-(3-oxo-3,4-dihydro-2H-benzo[1,4]thiazin-6-yl)-oxazolidin-5-yl]-propylamino}-methyl)-quinoline-5-carboxylic acid methyl ester] | ≤ 0.063
3 | COCCOc1ccc(CNCCCC2CN(c3ccc4c(c3)NC(=O)CS4)C(=O)O2)c2nc(OC)cnc12 (racemic) [Example 157, rac-6-[5-(3-{[3-methoxy-8-(2-methoxy-ethoxy)-quinoxalin-5-ylmethyl]-amino}-propyl)-2-oxo-oxazolidin-3-yl]-4H-benzo[1,4]thiazin-3-one] | 0.125 (≈ 0.226 µM)
4 | COc1cc2ccccc2c(CNCCCC2CN(c3ccc4c(c3)NC(=O)CS4)C(=O)O2)c1OC (racemic) [Example 168, rac-6-(5-{3-[(2,3-dimethoxy-naphthalen-1-ylmethyl)-amino]-propyl}-2-oxo-oxazolidin-3-yl)-4H-benzo[1,4]thiazin-3-one] | ≤ 0.063
5 | COc1ccc2c(OC)ccc(CNCCCC3CN(c4ccc5c(c4)NC(=O)CS5)C(=O)O3)c2c1 (racemic) [Example 169, rac-6-(5-{3-[(4,7-dimethoxy-naphthalen-1-ylmethyl)-amino]-propyl}-2-oxo-oxazolidin-3-yl)-4H-benzo[1,4]thiazin-3-one] | ≤ 0.063
6 | COC(=O)CCN(CCCC1CN(c2ccc3c(c2)NC(=O)CS3)C(=O)O1)Cc1ccnc2ccc(OC)nc12 (racemic) [Example 171, rac-3-((6-methoxy-[1,5]naphthyridin-4-ylmethyl)-{3-[2-oxo-3-(3-oxo-3,4-dihydro-2H-benzo[1,4]thiazin-6-yl)-oxazolidin-5-yl]-propyl}-amino)-propionic acid methyl ester] | ≤ 0.063
7 | COc1cnc2cccc([C@@H](O)CNCC[C@@H]3CN(c4ccc5c(c4)OCCO5)C(=O)O3)c2n1 (relative stereo) [Example 92, (R*)-3-(2,3-dihydro-benzo[1,4]dioxin-6-yl)-5-{2-[(R*)-2-hydroxy-2-(3-methoxy-quinoxalin-5-yl)-ethylamino]-ethyl}-oxazolidin-2-one] | 0.125 (≈ 0.268 µM)
8 | COc1ccc2nccc(CCNC[C@@H](O)[C@H]3CN(c4ccc5c(c4)OCCO5)C(=O)O3)c2n1 (relative stereo) [Example 97, (R*)-3-(2,3-dihydro-benzo[1,4]dioxin-6-yl)-5-{(R*)-1-hydroxy-2-[2-(6-methoxy-[1,5]naphthyridin-4-yl)-ethylamino]-ethyl}-oxazolidin-2-one] | ≤ 0.063
9 | COc1ccc2nccc(CCN(C)C[C@@H](O)[C@H]3CN(c4ccc5c(c4)OCCO5)C(=O)O3)c2n1 (relative stereo) [Example 99, (R*)-3-(2,3-dihydro-benzo[1,4]dioxin-6-yl)-5-((R*)-1-hydroxy-2-{[2-(6-methoxy-[1,5]naphthyridin-4-yl)-ethyl]-methyl-amino}-ethyl)-oxazolidin-2-one] | ≤ 0.063
10 | COc1cnc2cccc(C(O)CN(C)C[C@@H](O)[C@H]3CN(c4ccc5c(c4)OCCO5)C(=O)O3)c2n1 (relative stereo) [Example 100, (R*)-3-(2,3-dihydro-benzo[1,4]dioxin-6-yl)-(R*)-5-(1-hydroxy-2-{[(RS)-2-hydroxy-2-(3-methoxy-quinoxalin-5-yl)-ethyl]-methyl-amino}-ethyl)-oxazolidin-2-one] | ≤ 0.063
11 | COc1ccc2ncc(F)c(CNCC[C@@H](N)[C@@H]3CN(c4ccc5c(c4)OCCO5)C(=O)O3)c2n1 (relative stereo) [Example 107, (S*)-5-{(R*)-1-amino-3-[(3-fluoro-6-methoxy-[1,5]naphthyridin-4-ylmethyl)-amino]-propyl}-3-(2,3-dihydro-benzo[1,4]dioxin-6-yl)-oxazolidin-2-one] | ≤ 0.063
12 | COc1ccc2nccc(CCCC[C@@H](O)[C@H]3CN(c4ccc5c(c4)OCCO5)C(=O)O3)c2n1 (relative stereo) [Example 111, (R*)-3-(2,3-dihydro-benzo[1,4]dioxin-6-yl)-5-[(R*)-1-hydroxy-5-(6-methoxy-[1,5]naphthyridin-4-yl)-pentyl]-oxazolidin-2-one] | ≤ 0.063
13 | COc1cnc2cccc(/C=C/C(=O)NC[C@@H]3CN(c4ccc5c(c4)OCCO5)C(=O)O3)c2n1 [Example 5, (E)-N-[(R)-3-(2,3-dihydro-benzo[1,4]dioxin-6-yl)-2-oxo-oxazolidin-5-ylmethyl]-3-(3-methoxy-quinoxalin-5-yl)-acrylamide] | ≤ 0.063
14 | CCc1ccc(N2C[C@@H](CN(C)C(=O)/C=C/c3ccnc4ccc(OC)nc34)OC2=O)cc1 [Example 14, (E)-N-[(R)-3-(4-ethyl-phenyl)-2-oxo-oxazolidin-5-ylmethyl]-3-(6-methoxy-[1,5]naphthyridin-4-yl)-N-methyl-acrylamide] | ≤ 0.063
15 | N#Cc1ccc2cccc(/C=C/C(=O)NC[C@@H]3CN(c4ccc5c(c4)OCCO5)C(=O)O3)c2n1 [Example 16, (E)-3-(2-cyano-quinolin-8-yl)-N-[(R)-3-(2,3-dihydro-benzo[1,4]dioxin-6-yl)-2-oxo-oxazolidin-5-ylmethyl]-acrylamide] | 0.125 (≈ 0.274 µM)
16 | COc1ccc2nccc(/C=C/C(=O)N(C)C[C@@H]3CN(c4ccc(Br)c(F)c4)C(=O)O3)c2n1 [Example 22, (E)-N-[(R)-3-(4-bromo-3-fluoro-phenyl)-2-oxo-oxazolidin-5-ylmethyl]-3-(6-methoxy-[1,5]naphthyridin-4-yl)-N-methyl-acrylamide] | ≤ 0.063
17 | COc1cnc2cccc(CCC(=O)NC[C@@H]3CN(c4ccc5c(c4)NC(=O)CS5)C(=O)O3)c2c1 [Example 28, 3-(3-methoxy-quinolin-5-yl)-N-[(R)-2-oxo-3-(3-oxo-3,4-dihydro-2H-benzo[1,4]thiazin-6-yl)-oxazolidin-5-ylmethyl]-propionamide] | ≤ 0.063
18 | COc1ccc2nccc(/C=C/CNC[C@@H]3CN(c4ccc5c(c4)OCCO5)C(=O)O3)c2n1 [Example 29, (R)-3-(2,3-dihydro-benzo[1,4]dioxin-6-yl)-5-{[(E)-3-(6-methoxy-[1,5]naphthyridin-4-yl)-allylamino]-methyl}-oxazolidin-2-one] | ≤ 0.063
19 | COc1cnc2cccc(CCCNC[C@@H]3CN(c4ccc5c(c4)NC(=O)CS5)C(=O)O3)c2c1 [Example 35, 6-((R)-5-{[3-(3-methoxy-quinolin-5-yl)-propylamino]-methyl}-2-oxo-oxazolidin-3-yl)-4H-benzo[1,4]thiazin-3-one] | ≤ 0.063
20 | CCC(=O)N(CCCc1ccnc2ccc(OC)nc12)C[C@@H]1CN(c2ccc3c(c2)NC(=O)CS3)C(=O)O1 [Example 38, N-[3-(6-methoxy-[1,5]naphthyridin-4-yl)-propyl]-N-[(R)-2-oxo-3-(3-oxo-3,4-dihydro-2H-benzo[1,4]thiazin-6-yl)-oxazolidin-5-ylmethyl]-propionamide] | ≤ 0.063
21 | COc1cnc2cccc(CCCN(C)C[C@@H]3CN(c4ccc(C)c(F)c4)C(=O)O3)c2c1 [Example 43, (R)-3-(3-fluoro-4-methyl-phenyl)-5-({[3-(3-methoxy-quinolin-5-yl)-propyl]-methyl-amino}-methyl)-oxazolidin-2-one] | ≤ 0.063
22 | COc1ccc2ncc(F)c(C(O)CCCCC3CN(c4ccc5c(c4)OCCO5)C(=O)O3)c2n1 (stereo not shown) [Example 62, 3-(2,3-dihydro-benzo[1,4]dioxin-6-yl)-5-[5-(3-fluoro-6-methoxy-[1,5]naphthyridin-4-yl)-5-hydroxy-pentyl]-oxazolidin-2-one] | ≤ 0.063
23 | COc1ccc2nccc(NC(=O)CNC[C@@H]3CN(c4ccc5c(c4)NC(=O)CS5)C(=O)O3)c2n1 [Example 91, N-(6-methoxy-[1,5]naphthyridin-4-yl)-2-{[(R)-2-oxo-3-(3-oxo-3,4-dihydro-2H-benzo[1,4]thiazin-6-yl)-oxazolidin-5-ylmethyl]-amino}-acetamide] | ≤ 0.063
24 | COc1ccc2nccc(CCCCNC[C@@H]3CN(c4ccc5c(c4)NC(=O)CS5)C(=O)O3)c2n1 [Example 113, 6-((R)-5-{[4-(6-methoxy-[1,5]naphthyridin-4-yl)-butylamino]-methyl}-2-oxo-oxazolidin-3-yl)-4H-benzo[1,4]thiazin-3-one] | ≤ 0.063
25 | COc1ccc2nccc(CCCCC[C@@H]3CN(c4ccc5c(c4)NC(=O)CS5)C(=O)O3)c2n1 [Example 125, 6-{(R)-5-[5-(6-methoxy-[1,5]naphthyridin-4-yl)-pentyl]-2-oxo-oxazolidin-3-yl}-4H-benzo[1,4]thiazin-3-one] | ≤ 0.063
26 | COc1ccc2ncc(F)c(CCCN(C[C@H](O)CO)C[C@@H]3CN(c4ccc5c(c4)OCCO5)C(=O)O3)c2n1 [Example 135, (R)-3-(2,3-dihydro-benzo[1,4]dioxin-6-yl)-5-({((S)-2,3-dihydroxy-propyl)-[3-(3-fluoro-6-methoxy-[1,5]naphthyridin-4-yl)-propyl]-amino}-methyl)-oxazolidin-2-one] | ≤ 0.063
27 | COc1ccc2ncc(F)c(CN(CCO)CCC[C@@H]3CN(c4ccc5c(c4)NC(=O)CO5)C(=O)O3)c2n1 [Example 179, 6-((R)-5-{3-[(3-fluoro-6-methoxy-[1,5]naphthyridin-4-ylmethyl)-(2-hydroxy-ethyl)-amino]-propyl}-2-oxo-oxazolidin-3-yl)-4H-benzo[1,4]oxazin-3-one] | ≤ 0.063
28 | COc1ccc2ncc(F)c(CNC[C@H](O)[C@@H](O)[C@@H]3CN(c4ccc5c(c4)OCCO5)C(=O)O3)c2c1 [Example 181, (S)-3-(2,3-dihydro-benzo[1,4]dioxin-6-yl)-5-{(1R,2S)-3-[(3-fluoro-6-methoxy-quinolin-4-ylmethyl)-amino]-1,2-dihydroxy-propyl}-oxazolidin-2-one] | ≤ 0.063
